In the supplement of paper PMC11061612:

Key:
Experiment in all cases: Bliss excess, mean over the matrix (fraction); higher = more synergy
[1] = test system: PANC-03-27 (Pancreatic Carcinoma)
In short: (§1)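 Cell lines in DMEM/F12 or RPMI with 10% FBS were plated in 1536-well plates, held 24 hours at 37°C, 5% CO2, then given two-drug dose matrices for 72 hours (DMSO typically 0.2%). Viability was read by CellTiter-Glo 2.0 luminescence and scaled as inhibition from 0 (vehicle wells) to 1 (blank wells). Combination Emax is the second-highest inhibition in the matrix; Bliss excess is observed combination effect minus expected EA + EB − EA·EB, EA and EB being single-agent effects.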

[2] = test system: RKN (Other Solid Carcinomas)
In short: as §1

[3] = test system: MFE-280 (Endometrial Carcinoma)
In short: as §1

[4] = test system: TE-8 (Esophageal Squamous Cell Carcinoma)
In short: as §1

[5] = test system: LK-2 (Squamous Cell Lung Carcinoma)
In short: as §1

[6] = test system: OVMIU (Ovarian Carcinoma)
In short: as §1

[7] = test system: CAL-62 (Thyroid Gland Carcinoma)
In short: as §1

NB12 (Neuroblastoma) = test system: NB12 (Neuroblastoma)
In short: as §1

[8] = test system: VAL (B-Cell Non-Hodgkin's Lymphoma)
In short: as §1

[9] = test system: SHP-77 (Small Cell Lung Carcinoma)
In short: as §1

[10] = test system: PC-3_[JPC-3] (Lung Adenocarcinoma)
In short: as §1

[11] = test system: SK-PN-DW (Other Solid Carcinomas)
In short: as §1

SF539 (Glioblastoma) = test system: SF539 (Glioblastoma)
In short: as §1

[12] = test system: PSN1 (Pancreatic Carcinoma)
In short: as §1

[13] = test system: COLO-680N (Esophageal Squamous Cell Carcinoma)
In short: as §1

[14] = test system: MKN45 (Gastric Carcinoma)
In short: as §1

[15] = test system: RCM-1 (Colorectal Carcinoma)
In short: as §1

[16] = test system: REH (B-Lymphoblastic Leukemia)
In short: as §1

[17] = test system: OPM-2 (Plasma Cell Myeloma)
In short: as §1

[18] = test system: HSC-39 (Gastric Carcinoma)
In short: as §1

Row | Structure (SMILES) | Bliss excess [1] | Bliss excess [2] | Bliss excess [3] | Bliss excess [4] | Bliss excess [5] | Bliss excess [6] | Bliss excess [7] | Bliss excess (NB12 (Neuroblastoma)) | Bliss excess [8] | Bliss excess [9] | Bliss excess [10] | Bliss excess [11] | Bliss excess (SF539 (Glioblastoma)) | Bliss excess [12] | Bliss excess [13] | Bliss excess [14] | Bliss excess [15] | Bliss excess [16] | Bliss excess [17] | Bliss excess [18]
1 | C[C@@H](Oc1cc(-c2cnn(C3CCNCC3)c2)cnc1N)c1c(Cl)ccc(F)c1Cl [Crizotinib] + CC1=C(C(=CC=C1)Cl)NC(=O)C2=CN=C(S2)NC3=CC(=NC(=N3)C)N4CCN(CC4)CCO [Dasatinib] (first compound max 10 µM, 7x7, partner max 2 µM) | 0.0688 | 0.0179 | 0.0091 | 0.0208 | -0.0103 | 0.0041 | 0.0464 | -0.0563 | -0.0228 | -0.0482 | -0.0005 | -0.0426 | 0.0661 | -0.0469 | -0.0005 | -0.048 | -0.0081 | -0.0153 | 0 | 0.0093
2 | C[C@@H](Oc1cc(-c2cnn(C3CCNCC3)c2)cnc1N)c1c(Cl)ccc(F)c1Cl [Crizotinib] + Cn1cnc2c(F)c(Nc3ccc(Br)cc3Cl)c(C(=O)NOCCO)cc21 [Selumetinib] (first compound max 10 µM, 7x7, partner max 10 µM) | -0.0689 | 0.0181 | -0.0544 | -0.0898 | 0.011 | -0.0302 | -0.0219 | -0.0665 | -0.0516 | 0.0404 | -0.0549 | -0.0705 | -0.0212 | 0.0373 | -0.039 | -0.0192 | -0.0089 | -0.0309 | -0.0463 | -0.0264
3 | CS(=O)(=O)CCNCc1ccc(-c2ccc3ncnc(Nc4ccc(OCc5cccc(F)c5)c(Cl)c4)c3c2)o1 [Lapatinib] + Cn1cnc2c(F)c(Nc3ccc(Br)cc3Cl)c(C(=O)NOCCO)cc21 [Selumetinib] (first compound max 10 µM, 7x7, partner max 10 µM) | 0.044 | -0.0081 | -0.063 | -0.0505 | -0.0131 | -0.102 | -0.0284 | -0.11 | -0.0549 | -0.02 | -0.0292 | -0.0095 | 0.0066 | -0.0544 | -0.0171 | -0.0778 | 0.0661 | -0.0363 | -0.0294 | -0.0089
4 | O=C(c1cc(Cc2n[nH]c(=O)c3ccccc23)ccc1F)N1CCN(C(=O)C2CC2)CC1 [Olaparib] + CC1(C)CCC(CN2CCN(c3ccc(C(=O)NS(=O)(=O)c4ccc(NCC5CCOCC5)c([N+](=O)[O-])c4)c(Oc4cnc5[nH]ccc5c4)c3)CC2)=C(c2ccc(Cl)cc2)C1 [Venetoclax] (first compound max 10 µM, 7x7, partner max 1 µM) | -0.0675 | -0.0305 | -0.053 | -0.0825 | 0.0039 | -0.067 | -0.0329 | 0.0811 | 0.0181 | -0.0028 | -0.0354 | 0.0049 | -0.0105 | -0.0231 | -0.0584 | -0.0424 | -0.0304 | 0.163 | 0.0309 | 0.0033
5 | O=C(c1cc(Cc2n[nH]c(=O)c3ccccc23)ccc1F)N1CCN(C(=O)C2CC2)CC1 [Olaparib] + CN(CC[C@H](CSC1=CC=CC=C1)NC2=C(C=C(C=C2)S(=O)(=O)NC(=O)C3=CC=C(C=C3)N4CCC(CC4)[C@H](C5=CC=CC=C5C6=CC=C(C=C6)Cl)O)S(=O)(=O)C(F)(F)F)CCO [AZD4320] (first compound max 10 µM, 7x7, partner max 1 µM) | -0.0341 | -0.0407 | 0.0045 | -0.0869 | 0.0748 | -0.0979 | -0.042 | 0.0362 | 0.0212 | 0.0133 | -0.0525 | 0.0012 | -0.017 | -0.0224 | -0.0598 | -0.0428 | -0.0431 | 0.0835 | 0.0334 | -0.0172
6 | O=C(c1cc(Cc2n[nH]c(=O)c3ccccc23)ccc1F)N1CCN(C(=O)C2CC2)CC1 [Olaparib] + COc1nnc2ccc(N3CCC(c4ccc(OCCN5CCN(C)C(=O)[C@H]5C)cc4)CC3)nn12 [AZD5153] (first compound max 10 µM, 7x7, partner max 1 µM) | -0.0776 | 0.0101 | -0.0147 | -0.0706 | -0.0571 | -0.0521 | -0.0556 | -0.0203 | -0.0784 | 0.0113 | -0.0518 | -0.0518 | -0.0258 | -0.0337 | -0.0446 | -0.0794 | -0.0473 | 0.0378 | 0.0122 | -0.072
7 | O=C(c1cc(Cc2n[nH]c(=O)c3ccccc23)ccc1F)N1CCN(C(=O)C2CC2)CC1 [Olaparib] + Cc1c2c(nn1C)CSCc1cc(n(C)n1)CSc1cc(c3ccccc3c1)OCCCc1c(C(=O)O)n(C)c3c-2c(Cl)ccc13 [AZD5991] (first compound max 10 µM, 7x7, partner max 1 µM) | -0.0462 | -0.0443 | -0.0341 | -0.0467 | 0.041 | -0.0646 | -0.0483 | -0.0407 | 0.0078 | 0.0008 | -0.0456 | -0.0065 | -0.0003 | -0.0506 | -0.0543 | -0.0368 | -0.0412 | 0.0318 | 0.0251 | 0.0101
8 | N#Cc1cnc(Nc2cc(NC[C@H]3CNCCO3)c(C(F)(F)F)cn2)cn1 [SRA737] + C=CCn1c(=O)c2cnc(Nc3ccc(N4CCN(C)CC4)cc3)nc2n1-c1cccc(C(C)(C)O)n1 [AZD1775] (first compound max 10 µM, partner max 1 µM) | -0.0233 | 0.0124 | 0.0289 | -0.0377 | 0.115 | 0.0717 | 0.043 | 0.0199 | 0.0116 | 0.0512 | -0.0239 | 0.0812 | 0.0293 | 0.0375 | 0.0422 | -0.0475 | 0.0488 | 0.162 | 0.106 | 0.0943
9 | N#Cc1cnc(Nc2cc(NC[C@H]3CNCCO3)c(C(F)(F)F)cn2)cn1 [SRA737] + CCc1c2c(nc3ccc(O)cc13)-c1cc3c(c(=O)n1C2)COC(=O)[C@]3(O)CC [SN-38] (first compound max 10 µM, 7x7, partner max 0.3 µM) | -0.0648 | 0.0914 | 0.0626 | 0.0052 | 0.154 | -0.0769 | -0.0228 | -0.114 | -0.122 | 0.13 | -0.0536 | -0.0406 | -0.0174 | -0.0149 | 0.026 | 0.0226 | -0.0427 | -0.0324 | 0.0183 | 0.0294
10 | N#Cc1cnc(Nc2cc(NC[C@H]3CNCCO3)c(C(F)(F)F)cn2)cn1 [SRA737] + Nc1ccn([C@@H]2O[C@H](CO)[C@@H](O)C2(F)F)c(=O)n1 [Gemcitabine] (first compound max 10 µM, 7x7, partner max 0.3 µM) | -0.0023 | 0.118 | 0.0527 | -0.022 | 0.141 | -0.0588 | 0.0436 | 0.0372 | -0.125 | 0.141 | 0.0514 | -0.0377 | 0.0222 | 0.0721 | 0.0092 | -0.0613 | 0.138 | 0.0113 | 0.0238 | 0.0564
11 | Cc1nc(-c2cn3c(n2)-c2ccc(-c4cnn(C(C)(C)C(N)=O)c4)cc2OCC3)n(C(C)C)n1 [Taselisib] + O=C(Nc1ccc2[nH]nc(-c3ccncc3)c2c1)[C@@H]1CCN(CC(=O)N2CCN(c3ccc(-c4ncccn4)cc3)CC2)C1 [SCH772984] (first compound max 10 µM, 7x7, partner max 5 µM) | 0.0848 | 0.0798 | 0.0107 | -0.0514 | 0.0371 | 0.0699 | 0.0096 | -0.0116 | -0.002 | -0.0221 | 0.0293 | -0.0332 | 0.0465 | 0.0797 | 0.0219 | 0.0587 | 0.1 | 0.102 | 0.0779 | 0.029
12 | CC1(C)CCC(CN2CCN(c3ccc(C(=O)NS(=O)(=O)c4ccc(NCC5CCOCC5)c([N+](=O)[O-])c4)c(Oc4cnc5[nH]ccc5c4)c3)CC2)=C(c2ccc(Cl)cc2)C1 [Venetoclax] + CS(=O)(=O)CCNCc1ccc(-c2ccc3ncnc(Nc4ccc(OCc5cccc(F)c5)c(Cl)c4)c3c2)o1 [Lapatinib] (first compound max 1 µM, 7x7, partner max 10 µM) | -0.0535 | -0.0482 | -0.0477 | -0.0453 | 0.0165 | -0.0328 | -0.0442 | -0.0427 | -0.0033 | 0.0197 | -0.0332 | -0.0284 | -0.0166 | -0.0211 | -0.0166 | -0.054 | -0.0112 | 0.0755 | 0.0306 | -0.0257
